From US8409836B2, “Treatment of cellulosic material and enzymes useful therein” (Roal Oy, priority 2005, dated 2013)

T1: Acremonium thermophilum ALKO4245 cellobiohydrolase At Cel7A (At CBH/Cel7A), recombinant, SEQ ID NO: 6 (Phialemonium thermophilum, UniProt A7WNT9)
T1 sequence (A7WNT9 18-523): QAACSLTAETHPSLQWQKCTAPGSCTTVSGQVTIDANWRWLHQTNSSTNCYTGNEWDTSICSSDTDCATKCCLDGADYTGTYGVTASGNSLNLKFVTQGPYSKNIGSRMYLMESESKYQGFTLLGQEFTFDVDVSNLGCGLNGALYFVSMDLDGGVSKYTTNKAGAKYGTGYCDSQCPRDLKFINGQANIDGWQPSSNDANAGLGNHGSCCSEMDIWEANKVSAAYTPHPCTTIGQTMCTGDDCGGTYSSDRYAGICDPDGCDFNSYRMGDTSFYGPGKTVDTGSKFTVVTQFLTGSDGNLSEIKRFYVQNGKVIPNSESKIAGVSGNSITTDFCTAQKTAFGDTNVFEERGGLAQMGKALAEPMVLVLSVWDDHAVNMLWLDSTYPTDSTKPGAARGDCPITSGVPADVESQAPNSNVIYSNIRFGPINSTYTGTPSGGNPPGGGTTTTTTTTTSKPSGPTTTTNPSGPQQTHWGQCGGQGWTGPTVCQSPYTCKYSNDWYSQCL

T2: Chaetomium thermophilum ALKO4265 cellobiohydrolase Ct Cel7A (Ct CBH/Cel7A), recombinant, SEQ ID NO: 8 (Thermochaetoides thermophila, UniProt A7WNU1)
T2 sequence (A7WNU1 19-532): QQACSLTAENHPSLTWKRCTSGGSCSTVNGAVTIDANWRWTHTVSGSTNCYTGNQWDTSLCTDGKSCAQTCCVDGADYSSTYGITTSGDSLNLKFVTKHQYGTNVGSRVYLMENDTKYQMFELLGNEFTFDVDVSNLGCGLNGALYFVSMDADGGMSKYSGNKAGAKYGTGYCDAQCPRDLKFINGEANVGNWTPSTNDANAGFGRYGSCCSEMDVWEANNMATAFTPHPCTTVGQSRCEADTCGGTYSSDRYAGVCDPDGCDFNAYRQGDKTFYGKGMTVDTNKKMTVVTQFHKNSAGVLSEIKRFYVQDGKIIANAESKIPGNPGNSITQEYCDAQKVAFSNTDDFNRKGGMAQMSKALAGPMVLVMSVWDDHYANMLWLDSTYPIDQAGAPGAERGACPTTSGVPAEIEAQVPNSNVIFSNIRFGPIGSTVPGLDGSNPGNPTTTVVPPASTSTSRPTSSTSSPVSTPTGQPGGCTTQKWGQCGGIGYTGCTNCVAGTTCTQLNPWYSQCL

T3: Thermoascus aurantiacus ALKO4242 cellobiohydrolase Ta Cel7A (Ta CBH/Cel7A), recombinant, SEQ ID NO: 2 (Thermoascus aurantiacus, UniProt A7WNU2)
T3 sequence (A7WNU2 18-457): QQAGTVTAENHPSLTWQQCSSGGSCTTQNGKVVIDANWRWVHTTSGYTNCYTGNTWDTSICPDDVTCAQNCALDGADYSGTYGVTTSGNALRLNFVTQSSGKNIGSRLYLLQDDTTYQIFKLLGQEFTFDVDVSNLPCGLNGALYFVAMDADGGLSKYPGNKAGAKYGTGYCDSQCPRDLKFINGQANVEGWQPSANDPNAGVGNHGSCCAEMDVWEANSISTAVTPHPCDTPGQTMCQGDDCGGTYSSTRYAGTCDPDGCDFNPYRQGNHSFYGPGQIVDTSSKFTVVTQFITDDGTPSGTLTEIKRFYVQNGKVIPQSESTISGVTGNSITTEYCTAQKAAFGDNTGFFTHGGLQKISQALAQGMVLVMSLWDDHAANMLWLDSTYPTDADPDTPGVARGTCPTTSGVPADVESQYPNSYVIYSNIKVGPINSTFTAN


Columns and labels:
Format in all cases: biochemical
[1] = molecular target: T1, Acremonium thermophilum ALKO4245 cellobiohydrolase At Cel7A (At CBH/Cel7A), recombinant, SEQ ID NO: 6; assay: Cellobiose inhibition constant, CNPLac as substrate
Protocol: (§1) The Michaelis-Menten and cellobiose inhibition constants were determined from the cellobiohydrolases produced heterologously in T. reesei (Examples 14 and 15). The enzymes were purified as described in Example 2. Protein concentrations of purified enzymes were measured by their absorption at 280 nm using a theoretical molar extinction co-efficient, which were calculated from the amino acid sequences (Gill and von Hippel, 1989).
(§2) Kinetic constants (Km and kcat values) and cellobiose inhibition constant (Ki) for Tr CBHI/Cel7A, Ta CBH/Cel7A, At CBH/Cel7A and Ct CBH/Cel7A, were measured using CNPLac (2-Chloro-4-nitrophenyl-β-D-lactoside) as substrate at ambient temperature (22° C.) in 50 mM sodium phosphate buffer, pH 5.7. For the determination of the inhibition constant (Ki), eight different substrate concentrations (31-4000 μM) in the presence of a range of five inhibitor concentrations (0-100 μM or 0-400 μM), which bracket the Ki value, were used. All experiments were performed in microtiter plates and the total reaction volume was 200 μl. The initial rates were in each case measured by continuous monitoring the release of the chloro-nitrophenolate anion (CNP, 2-Chloro-4-nitrophenolate) through measurements at 405 nm using Varioscan (Thermolabsystems) microtiter plate reader. The results were calculated from CNP standard curve (from 0 to 100 μM). Enzyme concentrations used were: Tr CBHI/Cel7A 2.46 μM, Ta CBH/Cel7A 1.58 μM, Ct CBH/Cel7A 0.79 μM and At CBH/Cel7A 3 μM. The Km and kcat constants were calculated from the fitting of the Michaelis-Menten equation using the programme of Origin. Lineweaver-Burk plots, replots (LWB slope versus [Glc2; cellobiose]) and Hanes plots were used to distinguish between competitive and mixed type inhibition and to determine the inhibition constants (Ki).

[2] = molecular target: T2, Chaetomium thermophilum ALKO4265 cellobiohydrolase Ct Cel7A (Ct CBH/Cel7A), recombinant, SEQ ID NO: 8; assay: as above
Protocol: as §1, §2

[3] = molecular target: T3, Thermoascus aurantiacus ALKO4242 cellobiohydrolase Ta Cel7A (Ta CBH/Cel7A), recombinant, SEQ ID NO: 2; assay: as above
Protocol: as §1, §2

[4] = molecular target: Trichoderma reesei cellobiohydrolase I Tr Cel7A (Tr CBHI/Cel7A) (Trichoderma reesei, UniProt A0A024RXP8); assay: as above
Protocol: as §1, §2

[5] = β-glucosidase activity on 4-nitrophenyl-β-D-glucopyranoside; details: purified β-glucosidase, 50° C.
Protocol: (§3) Acremonium Thermophilum ALKO4245 was grown as described in Example 1. The pure β-glucosidase was obtained by sequential purification with hydrophobic interaction and anion exchange chromatography followed by gel filtration. The β-glucosidase activity of the fractions collected during purification was determined using 4-nitrophenyl-β-D-glucopyranoside as substrate (Bailey and Linko, 1990). Protein content was measured by BioRad Assay Kit (Bio-Rad Laboratories) using bovine serum albumine as standard.
as §3, with “Thermoascus aurantiacus ALKO4242” for “Acremonium Thermophilum ALKO4245”, “interaction, anion” for “interaction”, “cation” for “anion”

[6] = Thermal stability of purified β-glucosidase; details: 0.1 mg/ml BSA, pH 5.0, 60 min, 4-nitrophenyl-β-D-glucopyranoside
Protocol: (§4) Thermal stability of the purified β-glucosidase was determined at different temperatures. The reaction was performed in the presence of 0.1 mg/ml BSA at pH 5.0 for 60 min using 4-nitrophenyl-β-D-glucopyranoside as substrate. A. thermophilum βG—101 was stable up to 70° C. The Aspergillus reference enzyme (Novozym 188) retained 100% of activity up to 60°.
as §4, with “T. aurantiacus βG—81” for “A. thermophilum βG—101”, “75°” for “70°”, “60° C.” for “60°.”

[7] = pH optimum of heterologously produced β-glucosidases; details: McIlvaine's buffer, pH range 3.0-8.0, 4-nitrophenyl-β-D-glucopyranoside
Protocol: (§5) The pH optimum of the heterologously produced β-glucosidases was determined in the universal McIlvaine's buffer within a pH range of 3.0-8.0 using 4-nitrophenyl-β-D-glucopyranoside as substrate. The pH optima for the Acremonium βG—101, Chaetomium βG—76, and Thermoascus βG—81 are pH 4.5, 5.5, and 4.5, respectively (FIG. 7 A). The optimal temperature for enzymatic activity of these β-glucosidases was determined at the temperature range of 50-85° C. as described above. The highest activity of the enzymes was determined to be at 70° C., 65° C., and 75° C. for the Acremonium βG—101/Cel3A, Chaetomium βG—76/Cel3A, and Thermoascus βG—81/Cel3A, respectively (FIG. 7 B).

[8] = Temperature optimum of heterologously produced β-glucosidases; details: temperature range 50-85° C., 60 min
Protocol: as §5

Trichoderma reesei cellobiohydrolase I Tr Cel7A (Tr CBHI/Cel7A), sequence (A0A024RXP8 18-514): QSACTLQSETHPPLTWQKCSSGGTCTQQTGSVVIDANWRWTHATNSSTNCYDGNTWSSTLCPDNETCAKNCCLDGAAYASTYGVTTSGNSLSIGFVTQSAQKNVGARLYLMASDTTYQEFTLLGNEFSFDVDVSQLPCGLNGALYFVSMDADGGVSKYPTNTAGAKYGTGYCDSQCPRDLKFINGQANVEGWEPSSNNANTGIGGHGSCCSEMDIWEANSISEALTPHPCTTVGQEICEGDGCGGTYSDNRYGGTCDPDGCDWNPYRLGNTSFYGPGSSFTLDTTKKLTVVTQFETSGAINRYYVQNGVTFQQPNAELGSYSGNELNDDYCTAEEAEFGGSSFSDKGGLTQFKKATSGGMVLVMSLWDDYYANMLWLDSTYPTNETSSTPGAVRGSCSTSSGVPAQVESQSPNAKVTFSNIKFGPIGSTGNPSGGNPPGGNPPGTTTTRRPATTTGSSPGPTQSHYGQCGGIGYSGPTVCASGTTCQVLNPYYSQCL

Row | Molecule | Ki [1] | higher inhibition constant as compared to that of Tr CBHI/Cel7A ([1]; At CBH/Cel7A vs Tr CBHI/Cel7A, cellobiose) | Type of inhibition ([1]; At Cel7A, CNPLac substrate, 50 mM sodium phosphate pH 5.7, 22° C.) | Ki [2] | Type of inhibition ([2]; Ct Cel7A, CNPLac substrate, 50 mM sodium phosphate pH 5.7, 22° C.) | Ki [3] | Type of inhibition ([3]; Ta Cel7A, CNPLac substrate, 50 mM sodium phosphate pH 5.7, 22° C.) | Ki [4] | Type of inhibition ([4]; Tr Cel7A (control), CNPLac substrate, 50 mM sodium phosphate pH 5.7, 22° C.) | Specific activity on 4-nitrophenyl-β-D-glucopyranoside [5] | Thermal stability: temperature up to which stable / 100% of activity retained [6] | pH optimum [7] | Temperature of highest activity [8]
1 | OC[C@H]1O[C@@H](O[C@H]2[C@H](O)[C@@H](O)C(O)O[C@@H]2CO)[C@H](O)[C@@H](O)[C@@H]1O (stereo partly shown) [cellobiose] | 141 µM | over 7 fold | competitive | 39 µM | competitive | 107 µM | competitive | 19 µM | competitive | – | – | – | –
2 | At βG_101: beta-glucosidase of Acremonium thermophilum ALKO4245, gene At cel3A, amino acid SEQ ID NO: 24 (protein) MRQALVSLALLASSPVSAARELATSDPFYPSPWMNPEANGWEDAYAKAKAFVSQLTLLEKVNLTTGIGWQGGQCVGNVGSVPRLGLRSLCMQDSPVGIRFGDYVSVFPSGQTTAATFDKGLMNRRGNAMGQEHKGKGVNVLLGPVAGPIGRTPEGGRNWEGFSPDPVLTGIALAETIKGIQDAGVIACAKHFIANEQEHFRQSGEAQGYGFDISESLSSNIDDKTMHELYLWPFADGVRAGVGAIMCSYNQINNSYGCQNSKTLNNLLKNELGFQGFVMSDWQAQHTGAASAVAGLDMTMPGDTSFNTGLSYWGTNLTLAVLNGTVPEYRIDDMVMRIMAAFFKTGQTLDLPPINFDSWTTDTFGPLHFAVNEDRQQINWHVNVQDNHGSLIREIAAKGTVLLKNTGSLPLNKPKFLVVVGDDAGPNPAGPNACPDRGCDVGTLGMAWGSGSANFPYLITPDAALQAQAIKDGTRYESVLSNYQLDQTKALVTQANATAIVFVNADSGEGYINVDGNEGDRKNLTLWHDGDALIKSVAGWNPNTIVVIHSTGPVLVTDWYDHPNITAILWAGVPGQESGNAITDVLYGKVNPSGRSPFTWGPTRESYGTDVLYTPNNGKGAPQQAFSEGVFIDYRHFDRTNASVIYEFGHGLSYTTFQYSNIQVVKSNAGAYKPTTGTTIPAPTFGSFSKDLKDYLFPSDQFRYITQYIYPYLNSTDPAKASLDPHYGKTAAEFLPPHALDSNPQPLLRSSGKNEPGGNRQLYDILYTVTADITNTGSIVGAEVPQLYVSLGGPDDPKVVLRGFDRIRIDPGKTAQFRVTLTRRDLSNWDPAIQDWVISKYPKKVYIGRSSRKLELSADLA | – | – | – | – | – | – | – | – | – | 1100 nkat/mg | up to 70 °C | 4.5 | 70 °C
